Reference: patent EP0465913B1, “Diaminotrifluoromethylpyrimidine derivatives, process for their production and phospholipase A2 inhibitor containing them” (ISHIHARA SANGYO KAISHA, LTD., priority 1990, dated 1992)
“And” between values parts separate entries of the source, which are not always exact repeats. Identical values can stand only once. Counter-ions that a name gives are not always drawn.

How the values were obtained:
[1] = system: experimental acute pancreatitis model; test: Effects against acute pancreatitis (Test Example 7, closed duodenal loop method, gross pathological examination); type: in vivo, Crj-CD male rats; set-up: key: -: No significant lesions; ± ∼ +++: Focal-diffuse; ± ∼ +++: Focal-diffuse; ± ∼ +++: Focal-diffuse; ± ∼ +++: Focal-diffuse; details: 40 mg per kg continuous intravenous injection, examination 3 hours after ventrotomy, individual rats
Description: (§1) Using Crj-CD male rats (for Compound No. 19, rats having a body weight of from 371 to 484 g were used, and for Compound No. 10, rats having a body weight of from 444 to 574 g were used), each test group consisted of 3 rats. An experimental acute pancreatitis model was prepared by a closed duodenal loop method under anesthesia with halothane (manufactured by Hoechst Japan) and nitrous oxide (manufactured by Sumitomo Seika K.K.) applied by means of a general inhalation anesthesia machine (Model EM-2 and halothane evaporator F-Model). Then, Compound No. 19 or Compound No. 10 was continuously intravenously injected into the tail vein in an amount of 50 mg per kg or 40 mg per kg, respectively, at a rate of 0.05 ml per minute by means of a pump (Technicon AA II Proportioning Pump III, manufactured by Technicon Instruments Corporation). No injection was made to a control group. Gross pathological examination was conducted upon expiration of 6 hours after the ventrotomy in the case of the test group to which Compound No. 19 was administered, or upon expiration of 3 hours after the ventrotomy in the case of the test group to which Compound No. 10 was administered. As a result, as shown in the following Table 12, the groups to which the compounds of the present invention were administered, show distinct usefulness for treating acute pancreatitis.

[2] = system: experimental acute pancreatitis model; test: as above; type: in vivo, Crj-CD male rats; set-up: key: -: No significant lesions; ±: Minimal; +: Light; ++: Moderate; +++: Marked; details: 40 mg per kg continuous intravenous injection, examination 3 hours after ventrotomy, individual rats
Description: as §1

[3] = system: experimental acute pancreatitis model; test: as above; type: in vivo, Crj-CD male rats; set-up: key to Pancreatic edema Distribution: -: No significant lesions; ± ∼ +++: Focal-diffuse; ± ∼ +++: Focal-diffuse; ± ∼ +++: Focal-diffuse; ± ∼ +++: Focal-diffuse; key to Pancreatic hemorrhage Petechia Grade / Pancreatic edema Grade: -: No significant lesions; ±: Minimal; +: Light; ++: Moderate; +++: Marked; details: 40 mg per kg continuous intravenous injection, examination 3 hours after ventrotomy, individual rats
Description: as §1

ddy male mice = test: Acute toxicity, intravenous injection (LD50); type: in vivo; details: sodium salt, mortality over one week, 10080 min
Description: Administration route: Intravenous injection
Using ddy male mice (body weight: 25 - 30 g), each test group consisted of 5 mice. A test compound was dissolved in the form of a sodium salt in a physiological saline or in a 5% glucose aqueous solution, and intravenously injected in an amount of 0.1 ml/10 g body weight. After the injection, the mortality rate was obtained over one week, and the median lethal dose LD50 (mg/kg) was determined.

Row | Compound | Pancreatic hemorrhage Petechia Distribution [1] | Pancreatic hemorrhage Petechia Distribution [2] | Pancreatic edema Distribution [3] | Pancreatic edema Grade [3] | Pancreatic hemorrhage Petechia Grade [3] | LD50 (ddy male mice)
1 | CS(=O)(=O)Nc1ncc(C(F)(F)F)cc1NC(=O)c1ccc(F)cc1 [Compound No. 10, N-(2-methylsulfonylamino-5-trifluoromethyl-3-pyridyl)-4-fluorobenzamide] | ± and + | - | ± and + (2×) | ± and + and †† | ± and - and + | 
2 | CCS(=O)(=O)Nc1ncc(C(F)(F)F)cc1NC(=O)C1CCCCC1 [Compound No. 251, sodium salt of N-(2-ethylsulfonylamino-5-trifluoromethyl-3-pyridyl)cyclohexanecarboxamide] |  |  |  |  |  | 65 mg/kg
